Measurements: patent US7964531B2, “3-phenoxy-4-pyridazinol derivatives and herbicidal composition containing the same” (Mitsui Chemicals Agro, Inc., priority 2001, dated 2011)

Assays:
Format in all cases: in vivo
Conditions in all cases: wettable powder applied 3 days after transplanting, judged after 25 days
[1] = system: transplanted paddy-field rice; test: Test Example 1: crop injury against transplanted paddy-field rice
Description: (§1) A paddy soil was filled in 1/10,000 are pot, and seeds of barnyardgrass (Echinochloa oryzicola Vasing.), Scirpus joncoides and annual broad-leaved weeds (Lindernia spp., Rotala indica) which are awaken from dormancy were mixed at the surface layer of 1 cm. Also, tuber of Cyperus serotinus which is germinated was planted, and further seedlings of paddy-field rice at 2.2-leaf stage were transplanted, and they were grown under the flooded condition in a greenhouse. After 3 days from transplanting, a predetermined chemical dosage of the wettable powder prepared in accordance with Preparation example 1 was diluted in water, and the solution was applied to the pot and herbicidal effects and crop injury against transplanted paddy-field rice were judged after 25 days from the treatment. Also, 3-(2-allylphenoxy)-6-chloro-4-methoxypyridazine described in Chemical Pharmaceutical Bulletin, 1972, vol. 20, No. 10, pp. 2191-2203 was used as Comparative compound. Incidentally, herbicidal effects and crop injury against transplanted paddy-field rice were judged by the following judgment standard, and “-” in the table means no test was carried out.
(§2) Judgment Standard • 0: Growth inhibition rate; 0 to 10% • 1: Growth inhibition rate; 11 to 30% • 2: Growth inhibition rate; 31 to 50% • 3: Growth inhibition rate; 51 to 70% • 4: Growth inhibition rate; 71 to 90% • 5: Growth inhibition rate; 91 to 100%.

[2] = system: barnyardgrass (Echinochloa oryzicola Vasing.); test: Test Example 1: herbicidal effects, paddy-field pot test
Description: as §1, §2

Cyperus serotinus = test: as above
Description: as §1, §2

Scirpus joncoides = test: as above
Description: as §1, §2

[3] = system: annual broad-leaved weeds (Lindernia spp., Rotala indica); test: as above
Description: as §1, §2

| Structure (SMILES) | Crop injury against transplanted rice ([1]; chemical dosage 12.5 g/a) | Crop injury against transplanted rice ([1]; chemical dosage 25 g/a) | Herbicidal effects Barnyard grass ([2]; chemical dosage 12.5 g/a) | Herbicidal effects Barnyard grass ([2]; chemical dosage 25 g/a) | Herbicidal effects Cyperus serotinus (Cyperus serotinus; chemical dosage 12.5 g/a) | Herbicidal effects Cyperus serotinus (Cyperus serotinus; chemical dosage 25 g/a) | Herbicidal effects Scirpus joncoides (Scirpus joncoides; chemical dosage 12.5 g/a) | Herbicidal effects Scirpus joncoides (Scirpus joncoides; chemical dosage 25 g/a) | Herbicidal effects Broad leaf ([3]; chemical dosage 12.5 g/a) | Herbicidal effects Broad leaf ([3]; chemical dosage 25 g/a) | Crop injury against transplanted rice ([1]; chemical dosage 10 g/a) | Crop injury against transplanted rice ([1]; chemical dosage 20 g/a) | Herbicidal effects Barnyard grass ([2]; chemical dosage 10 g/a) | Herbicidal effects Barnyard grass ([2]; chemical dosage 20 g/a) | Herbicidal effects Cyperus serotinus (Cyperus serotinus; chemical dosage 10 g/a) | Herbicidal effects Cyperus serotinus (Cyperus serotinus; chemical dosage 20 g/a) | Herbicidal effects Scirpus joncoides (Scirpus joncoides; chemical dosage 10 g/a) | Herbicidal effects Scirpus joncoides (Scirpus joncoides; chemical dosage 20 g/a) | Herbicidal effects Broad leaf ([3]; chemical dosage 10 g/a) | Herbicidal effects Broad leaf ([3]; chemical dosage 20 g/a) |
| --- | --- | --- | --- | --- | --- | --- | --- | --- | --- | --- | --- | --- | --- | --- | --- | --- | --- | --- | --- | --- |
| Oc1cc(Cl)nnc1Oc1ccccc1Cl [Example 50] | 0 (Growth inhibition rate; 0 to 10%) | 0 (Growth inhibition rate; 0 to 10%) | 2 (Growth inhibition rate; 31 to 50%) | 3 (Growth inhibition rate; 51 to 70%) | 5 (Growth inhibition rate; 91 to 100%) | 5 (Growth inhibition rate; 91 to 100%) | 3 (Growth inhibition rate; 51 to 70%) | 4 (Growth inhibition rate; 71 to 90%) | 5 (Growth inhibition rate; 91 to 100%) | 5 (Growth inhibition rate; 91 to 100%) |  |  |  |  |  |  |  |  |  |  |
| Oc1cc(Cl)nnc1Oc1ccccc1Br [Example 51] | 0 (Growth inhibition rate; 0 to 10%) | 0 (Growth inhibition rate; 0 to 10%) | 2 (Growth inhibition rate; 31 to 50%) | 2 (Growth inhibition rate; 31 to 50%) | 5 (Growth inhibition rate; 91 to 100%) | 5 (Growth inhibition rate; 91 to 100%) | 3 (Growth inhibition rate; 51 to 70%) | 5 (Growth inhibition rate; 91 to 100%) | 4 (Growth inhibition rate; 71 to 90%) | 5 (Growth inhibition rate; 91 to 100%) |  |  |  |  |  |  |  |  |  |  |
| Oc1cc(Cl)nnc1Oc1ccccc1I [Example 52] |  |  |  |  |  |  |  |  |  |  | 0 (Growth inhibition rate; 0 to 10%) | 0 (Growth inhibition rate; 0 to 10%) | 3 (Growth inhibition rate; 51 to 70%) | 4 (Growth inhibition rate; 71 to 90%) | 5 (Growth inhibition rate; 91 to 100%) | 5 (Growth inhibition rate; 91 to 100%) | 5 (Growth inhibition rate; 91 to 100%) | 5 (Growth inhibition rate; 91 to 100%) | 5 (Growth inhibition rate; 91 to 100%) | 5 (Growth inhibition rate; 91 to 100%) |
| CCc1ccccc1Oc1nnc(Cl)cc1O [Example 55] | 0 (Growth inhibition rate; 0 to 10%) | 0 (Growth inhibition rate; 0 to 10%) | 2 (Growth inhibition rate; 31 to 50%) | 2 (Growth inhibition rate; 31 to 50%) | 5 (Growth inhibition rate; 91 to 100%) | 5 (Growth inhibition rate; 91 to 100%) | 3 (Growth inhibition rate; 51 to 70%) | 4 (Growth inhibition rate; 71 to 90%) | 5 (Growth inhibition rate; 91 to 100%) | 5 (Growth inhibition rate; 91 to 100%) |  |  |  |  |  |  |  |  |  |  |
| CCCc1ccccc1Oc1nnc(Cl)cc1O [Example 56] | 0 (Growth inhibition rate; 0 to 10%) | 0 (Growth inhibition rate; 0 to 10%) | 0 (Growth inhibition rate; 0 to 10%) | 0 (Growth inhibition rate; 0 to 10%) | 4 (Growth inhibition rate; 71 to 90%) | 4 (Growth inhibition rate; 71 to 90%) | 2 (Growth inhibition rate; 31 to 50%) | 3 (Growth inhibition rate; 51 to 70%) | 4 (Growth inhibition rate; 71 to 90%) | 5 (Growth inhibition rate; 91 to 100%) |  |  |  |  |  |  |  |  |  |  |
| CC(C)c1ccccc1Oc1nnc(Cl)cc1O [Example 57] | 0 (Growth inhibition rate; 0 to 10%) | 0 (Growth inhibition rate; 0 to 10%) | 2 (Growth inhibition rate; 31 to 50%) | 2 (Growth inhibition rate; 31 to 50%) | 5 (Growth inhibition rate; 91 to 100%) | 5 (Growth inhibition rate; 91 to 100%) | 3 (Growth inhibition rate; 51 to 70%) | 4 (Growth inhibition rate; 71 to 90%) | 5 (Growth inhibition rate; 91 to 100%) | 5 (Growth inhibition rate; 91 to 100%) |  |  |  |  |  |  |  |  |  |  |
| CC(C)(C)c1ccccc1Oc1nnc(Cl)cc1O [Example 61] | 0 (Growth inhibition rate; 0 to 10%) | 0 (Growth inhibition rate; 0 to 10%) | 1 (Growth inhibition rate; 11 to 30%) | 2 (Growth inhibition rate; 31 to 50%) | 5 (Growth inhibition rate; 91 to 100%) | 5 (Growth inhibition rate; 91 to 100%) | 5 (Growth inhibition rate; 91 to 100%) | 5 (Growth inhibition rate; 91 to 100%) | 5 (Growth inhibition rate; 91 to 100%) | 5 (Growth inhibition rate; 91 to 100%) |  |  |  |  |  |  |  |  |  |  |
| CC1CC1c1ccccc1Oc1nnc(Cl)cc1O (stereo not shown) [Example 72] |  |  |  |  |  |  |  |  |  |  | 0 (Growth inhibition rate; 0 to 10%) | 0 (Growth inhibition rate; 0 to 10%) | 3 (Growth inhibition rate; 51 to 70%) | 3 (Growth inhibition rate; 51 to 70%) | 4 (Growth inhibition rate; 71 to 90%) | 5 (Growth inhibition rate; 91 to 100%) | 5 (Growth inhibition rate; 91 to 100%) | 5 (Growth inhibition rate; 91 to 100%) | 5 (Growth inhibition rate; 91 to 100%) | 5 (Growth inhibition rate; 91 to 100%) |
| Oc1cc(Cl)nnc1Oc1ccccc1C1CCC1 [Example 85] |  |  |  |  |  |  |  |  |  |  | 0 (Growth inhibition rate; 0 to 10%) |  | 2 (Growth inhibition rate; 31 to 50%) |  | 5 (Growth inhibition rate; 91 to 100%) |  | 3 (Growth inhibition rate; 51 to 70%) |  | 4 (Growth inhibition rate; 71 to 90%) |  |
| Oc1cc(Cl)nnc1Oc1ccccc1C1CCCC1 [Example 88] | 0 (Growth inhibition rate; 0 to 10%) | 0 (Growth inhibition rate; 0 to 10%) | 0 (Growth inhibition rate; 0 to 10%) | 0 (Growth inhibition rate; 0 to 10%) | 5 (Growth inhibition rate; 91 to 100%) | 5 (Growth inhibition rate; 91 to 100%) | 4 (Growth inhibition rate; 71 to 90%) | 5 (Growth inhibition rate; 91 to 100%) | 4 (Growth inhibition rate; 71 to 90%) | 5 (Growth inhibition rate; 91 to 100%) |  |  |  |  |  |  |  |  |  |  |
| COc1ccccc1Oc1nnc(Cl)cc1O [Example 121] | 0 (Growth inhibition rate; 0 to 10%) | 0 (Growth inhibition rate; 0 to 10%) | 2 (Growth inhibition rate; 31 to 50%) | 3 (Growth inhibition rate; 51 to 70%) | 5 (Growth inhibition rate; 91 to 100%) | 5 (Growth inhibition rate; 91 to 100%) | 3 (Growth inhibition rate; 51 to 70%) | 4 (Growth inhibition rate; 71 to 90%) | 5 (Growth inhibition rate; 91 to 100%) | 5 (Growth inhibition rate; 91 to 100%) |  |  |  |  |  |  |  |  |  |  |
| CCOc1ccccc1Oc1nnc(Cl)cc1O [Example 122] |  |  |  |  |  |  |  |  |  |  | 0 (Growth inhibition rate; 0 to 10%) | 0 (Growth inhibition rate; 0 to 10%) | 0 (Growth inhibition rate; 0 to 10%) | 0 (Growth inhibition rate; 0 to 10%) | 5 (Growth inhibition rate; 91 to 100%) | 5 (Growth inhibition rate; 91 to 100%) | 4 (Growth inhibition rate; 71 to 90%) | 5 (Growth inhibition rate; 91 to 100%) | 5 (Growth inhibition rate; 91 to 100%) | 5 (Growth inhibition rate; 91 to 100%) |
